Results: patent publication US20250177566A1, “USE OF CHEMICAL EPIGENETIC MODIFIERS TO MODULATE GENE EXPRESSION” (The University of North Carolina at Chapel Hill, priority 2022, published 2025)
Where two headings read alike, the source gives them in different places.

Assays:
TRE3G-GFP reporter gene [1] = assay: TRE3G-GFP reporter gene activation in HCT116, dCas9 + MS2-FKBP*x2 (F36V) system, flow cytometry; format: cell-based, human; set-up: fold change, GFP: reference not given here; conditions: for fold change, GFP (Treated vs Non-Treated): FIG. 1E, 48 hours; for fold change, GFP: 48 hrs
TRE3G-GFP reporter gene [2] = conditions: WT FKBP (MS2-FKBPx2), 48 hrs
Procedure: HCT116 cells were transfected with TRE3G-GFP, dCas9, MS2-FKPB*x2, and TRE3G gRNA or NT gRNA. After 48 hrs of 10 nM SLF*-CEMa treatment, flow cytometry was performed and mean fluorescent value was collected. […] TRE3G-GFP, dCas9, MS2-FKBP*2, TRE3G gRNA or NT gRNA were transfected into HCT116 cells. The media was changed to media with 5 nM CEM207 together with 0 nM, 50 nM, 500 nM or 5000 nM of AP1867, respectively. After 48 hrs chemical exposure, flow cytometry was performed and the mean fluorescent value was measured in each group of cells. […] FIGS. 5D and 5E are dose curves of CEMa molecules activating the GFP reporter gene in HCT116 cells using WT FKBP and dCas9 as DNA binding module. HCT116 cells were transfected with dCas9, MS2-FKBPx2, TRE3G-GFP constructs, along with TRE3G gRNA or NT gRNA. Cells were treated with different concentrations of CEMa molecules for 48 hrs before flow cytometry was conducted. […] Error bars represent the standard deviation.
To better understand the activity of SLF*-CEMa in the WT FKBP-based GFP reporter assay, a similar dose-response assay was conducted in HCT116 cells transfected with dCas9 and MS2-FKBPx2 (FIGS. 1D and 1E).
Flow cytometry. All flow cytometry experiments were performed with Attune Nxt as previously described. […] Significance was determined by Student's t-test.

CXCR4 = CXCR4 mRNA activation in HCT116 stably expressing dCas9 and MS2-FKBP*x2, qRT-PCR; format: cell-based, human; conditions: FIG. 2C; 5 nM; 48 hrs
Procedure: To further explore the activation potential of the SLF*-CEMa, their ability to target endogenous genes was evaluated (FIGS. 2A and 2B). Lentivirus was used to establish a stable HCT116 cell line expressing dCas9 and MS2-FKBP*x2 constructs, selecting for cells with antibiotic resistance. […] All CEMs were screened for their ability to activate the CXCR4 gene at 5 nM (FIG. 2C). RNA extraction and quantitative RT-PCR (qRT-PCR) were performed after 48 hours of CEM treatment.
To determine the optimal treatment concentration of the SLF*-CEMa molecules in this context, HCT116 cells were treated with 1 nM, 5 nM, 25 nM, and 50 nM of CEM203, CEM207, or CEM87. […] After 48 hours, RNA extraction followed by qRT-PCR was performed to evaluate the change in mRNA expression of CXCR4 (FIG. 2D). […] To directly compare this induced activation to other CRISPR-Cas9-based epigenetic activators, dCas9-VPR and dCas9-p300 constructs were virally infected into HCT116 cells and CXCR4 activation assessed in a similar fashion (FIGS. 2A and 2B).
To determine the time at which SLF*-CEMa most effectively induces gene activation, CXCR4 gene expression changes over time were investigated in dCas9 and MS2-FKBP*x2 stably infected HCT116 cells. Cells were treated with either vehicle, […] (FIG. 3A). RNA extraction and qRT-PCR were performed at 12, 24, 48, 72, and 96 hrs time points (FIG. 3B).
To investigate if endogenous gene activation triggered by the SLF*-CEMa compounds is also reversible, HCT116 cells were treated with CEM203 (50 nM) or CEM207 (25 nM) for 24 hours after transfecting CXCR4 gRNA, and then the CEMs were removed by media exchange at various time points. […] Likewise, it was investigated whether treatment with excess AP1867 could further reverse gene activation, potentially in a more robust fashion than with washout alone if there is any remaining intracellular SLF*-CEMa. To test this, after 24 hours of SLF*-CEMa treatment, a media exchange containing 20 μM AP1867 was performed (FIGS. 3C and 3D).
RNA extraction and qRT-PCR. All RNA extraction experiments were conducted in 12-well plate format. Culturing medium was removed, and cells were washed with 1×PBS, following with 0.05% trypsin to disassociate. After being quenched by medium and centrifuged, cells were washed with 1×PBS, and the RNA extraction was performed by using RNeasy Plus Mini kit (Qiagen, 74134). RT-qPCR was conducted by using RNA-to CT 1-step kit (Thermo Fisher Scientific, 4389986). The primer sets used in quantifying each gene can be found in Table 4.

For `CC[C@H](C(=O)N1CCCC[C@H]1C(=O)O[C@H](CCc1ccc(OC)c(OC)c1)c1cccc(OCC(=O)NCCOCCOCCOCCNC(=O)C[C@@H]2N=C(c3ccc(Cl)cc3)c3cc(OC)ccc3-n3c(C)nnc32)c1)c1cc(OC)c(OC)c(OC)c1` [CEM202, (1R)-1-(3-((17-((4S)-6-(4-Chlorophenyl)-8-methoxy-1-methyl-4/I-benzo[f][1,2,4]triazolo[4,3-a][1,4]diazepin-4-yl)-2,16-dioxo-6,9,12-trioxa-3,15-diazaheptadecyl)oxy)phenyl)-3-(3,4-dimethoxyphenyl) propyl (2S)-1-((S)-2-(3,4,5-trimethoxyphenyl)butanoyl) piperidine-2-carboxylate], the “fold change, GFP (Treated vs Non-Treated)” value (TRE3G-GFP reporter gene [1]; TRE3G gRNA, 0.25 nM) was 1.1 fold, the “fold change, GFP (Treated vs Non-Treated)” value (TRE3G-GFP reporter gene [1]; TRE3G gRNA, 0.5 nM) was 1.3 fold and the “fold change, GFP (Treated vs Non-Treated)” value (TRE3G-GFP reporter gene [1]; TRE3G gRNA, 0.75 nM) was 1.3 fold. The “fold change, GFP (Treated vs Non-Treated)” value (TRE3G-GFP reporter gene [1]; TRE3G gRNA, 1 nM) was 1.5 fold, the “fold change, GFP (Treated vs Non-Treated)” value (TRE3G-GFP reporter gene [1]; TRE3G gRNA, 2.5 nM) was 2.8 fold and the “fold change, GFP (Treated vs Non-Treated)” value (TRE3G-GFP reporter gene [1]; TRE3G gRNA, 5 nM) was 12.5 fold. The “fold change, GFP (Treated vs Non-Treated)” value (TRE3G-GFP reporter gene [1]; TRE3G gRNA, 7.5 nM) was 13.9 fold, the “fold change, GFP (Treated vs Non-Treated)” value (TRE3G-GFP reporter gene [1]; TRE3G gRNA, 10 nM) was 15.0 fold and the “fold change, GFP (Treated vs Non-Treated)” value (TRE3G-GFP reporter gene [1]; TRE3G gRNA, 25 nM) was 22.0 fold. The “fold change, GFP (Treated vs Non-Treated)” value (TRE3G-GFP reporter gene [1]; TRE3G gRNA, 50 nM) was 28.8 fold, the “fold change, GFP (Treated vs Non-Treated)” value (TRE3G-GFP reporter gene [1]; TRE3G gRNA, 75 nM) was 27.1 fold and the “fold change, GFP (Treated vs Non-Treated)” value (TRE3G-GFP reporter gene [1]; TRE3G gRNA, 100 nM) was 25.5 fold. For the same compound, the “fold change, GFP” value (TRE3G-GFP reporter gene [1]; FIG. 5A, NT gRNA, 10 nM) was 0.5 fold, the “fold change, GFP” value (TRE3G-GFP reporter gene [1]; FIG. 5A, TRE3G gRNA, 10 nM) was 8.4 fold and the “fold change, GFP” value (TRE3G-GFP reporter gene [1]; FIG. 5C, NT gRNA, 0.25 nM) was 1.0 fold. For the same compound, the “fold change, GFP” value (TRE3G-GFP reporter gene [1]; FIG. 5C, NT gRNA, 0.5 nM) was 1.0 fold, the “fold change, GFP” value (TRE3G-GFP reporter gene [1]; FIG. 5C, NT gRNA, 0.75 nM) was 1.1 fold and the “fold change, GFP” value (TRE3G-GFP reporter gene [1]; FIG. 5C, NT gRNA, 1 nM) was 1.0 fold. For the same compound, the “fold change, GFP” value (TRE3G-GFP reporter gene [1]; FIG. 5C, NT gRNA, 2.5 nM) was 1.0 fold, the “fold change, GFP” value (TRE3G-GFP reporter gene [1]; FIG. 5C, NT gRNA, 5 nM) was 1.1 fold and the “fold change, GFP” value (TRE3G-GFP reporter gene [1]; FIG. 5C, NT gRNA, 7.5 nM) was 1.1 fold. For the same compound, the “fold change, GFP” value (TRE3G-GFP reporter gene [1]; FIG. 5C, NT gRNA, 10 nM) was 1.2 fold, the “fold change, GFP” value (TRE3G-GFP reporter gene [1]; FIG. 5C, NT gRNA, 25 nM) was 1.3 fold and the “fold change, GFP” value (TRE3G-GFP reporter gene [1]; FIG. 5C, NT gRNA, 50 nM) was 1.4 fold. The “fold change, GFP” value (TRE3G-GFP reporter gene [1]; FIG. 5C, NT gRNA, 75 nM) was 1.4 fold, the “fold change, GFP” value (TRE3G-GFP reporter gene [1]; FIG. 5C, NT gRNA, 100 nM) was 1.4 fold and the “fold change, GFP (Treated vs Non-Treated)” value (TRE3G-GFP reporter gene [2]; FIG. 5D, 10 nM) was 0.9 fold. For the same compound, the “fold change, GFP (Treated vs Non-Treated)” value (TRE3G-GFP reporter gene [2]; FIG. 5D, 25 nM) was 1.0 fold, the “fold change, GFP (Treated vs Non-Treated)” value (TRE3G-GFP reporter gene [2]; FIG. 5D, 50 nM) was 1.1 fold and the “fold change, GFP (Treated vs Non-Treated)” value (TRE3G-GFP reporter gene [2]; FIG. 5D, 100 nM) was 5.3 fold. For the same compound, the “fold change, GFP (Treated vs Non-Treated)” value (TRE3G-GFP reporter gene [2]; FIG. 5D, 200 nM) was 11.6 fold, the “fold change, GFP (Treated vs Non-Treated)” value (TRE3G-GFP reporter gene [2]; FIG. 5D, 400 nM) was 17.5 fold and the “fold change, GFP (Treated vs Non-Treated)” value (TRE3G-GFP reporter gene [2]; FIG. 5E, 10 nM) was 0.9 fold. The “fold change, GFP (Treated vs Non-Treated)” value (TRE3G-GFP reporter gene [2]; FIG. 5E, 25 nM) was 0.9 fold, the “fold change, GFP (Treated vs Non-Treated)” value (TRE3G-GFP reporter gene [2]; FIG. 5E, 50 nM) was 1.0 fold and the “fold change, GFP (Treated vs Non-Treated)” value (TRE3G-GFP reporter gene [2]; FIG. 5E, 100 nM) was 1.0 fold. The “fold change, GFP (Treated vs Non-Treated)” value (TRE3G-GFP reporter gene [2]; FIG. 5E, 200 nM) was 1.0 fold, the “fold change, GFP (Treated vs Non-Treated)” value (TRE3G-GFP reporter gene [2]; FIG. 5E, 400 nM) was 1.0 fold and the “fold change, CXCR4 mRNA (Treated vs Non-Treated)” value (CXCR4) was 3.5 fold.
For `CC[C@H](C(=O)N1CCCC[C@H]1C(=O)O[C@H](CCc1ccc(OC)c(OC)c1)c1cccc(OCC(=O)NCCOCCOCCOCCOCCOCCOCCNC(=O)C[C@@H]2N=C(c3ccc(Cl)cc3)c3c(sc(C)c3C)-n3c(C)nnc32)c1)c1cc(OC)c(OC)c(OC)c1` [CEM211, (R)-1-(3-((26-((S)-4-(4-Chlorophenyl)-2,3,9-trimethyl-6H-thieno[3,2-f][1,2,4]triazolo[4,3-a][1,4]diazepin-6-yl)-2,25-dioxo-6,9,12,15,18,21-hexaoxa-3,24-diazahexacosyl)oxy)phenyl)-3-(3,4-dimethoxyphenyl) propyl(S)-1-((S)-2-(3,4,5-trimethoxyphenyl)butanoyl) piperidine-2-carboxylate], the “fold change, GFP” value (TRE3G-GFP reporter gene [1]; FIG. 5A, NT gRNA, 10 nM) was 0.4 fold, the “fold change, GFP” value (TRE3G-GFP reporter gene [1]; FIG. 5A, TRE3G gRNA, 10 nM) was 7.8 fold and the “fold change, CXCR4 mRNA (Treated vs Non-Treated)” value (CXCR4) was 8.5 fold.
`CC[C@H](C(=O)N1CCCC[C@H]1C(=O)O[C@H](CCc1ccc(OC)c(OC)c1)c1cccc(OCC(=O)NCCOCCOCCOCCOCCOCCOCCOCCNC(=O)C[C@@H]2N=C(c3ccc(Cl)cc3)c3c(sc(C)c3C)-n3c(C)nnc32)c1)c1cc(OC)c(OC)c(OC)c1` [CEM212, (R)-1-(3-((29-((S)-4-(4-Chlorophenyl)-2,3,9-trimethyl-6H-thieno[3,2-f][1,2,4]triazolo[4,3-a][1,4]diazepin-6-yl)-2,28-dioxo-6,9,12,15,18,21,24-heptaoxa-3,27-diazanonacosyl)oxy)phenyl)-3-(3,4-dimethoxyphenyl) propyl(S)-1-((S)-2-(3,4,5-trimethoxyphenyl)butanoyl) piperidine-2-carboxylate] was tested, and the “fold change, GFP” value (TRE3G-GFP reporter gene [1]; FIG. 5A, NT gRNA, 10 nM) was 0.4 fold, the “fold change, GFP” value (TRE3G-GFP reporter gene [1]; FIG. 5A, TRE3G gRNA, 10 nM) was 6.1 fold and the “fold change, CXCR4 mRNA (Treated vs Non-Treated)” value (CXCR4) was 12.6 fold.
